Results taken from US20260217863A1, “ANTIBODY OR PEPTIDE BINDING SPECIFICALLY TO RNASE A, IMMUNOASSAY DEVICE AND METHOD FOR DETECTING RNASE A, AND METHOD FOR COLLECTING RNASE A” (UIF (University Industry Foundation), Yonsei University, priority 2022, published 2026).
Where no end group is shown, it is not given here.

Target: T1, RNase A (Bos taurus, UniProt P61823)
T1 sequence (P61823 27-150): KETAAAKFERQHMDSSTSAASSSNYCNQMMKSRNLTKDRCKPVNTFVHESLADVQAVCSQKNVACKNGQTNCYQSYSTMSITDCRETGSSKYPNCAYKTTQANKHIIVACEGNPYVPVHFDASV
Assay: cCMP hydrolysis assay of RNase A inhibition (absorbance 286 nm)
Type: biochemical, bovine
Design: Ribonuclease A (Type II-A) from bovine pancreas; purchased Sigma-Aldrich Korea; host or cells: bovine pancreas
Details: inhibitor 0.1 nM to 1 μM, linear regression
Method: The analysis of RNase A activity inhibition based on 2′,3′-cyclic CMP (cCMP) was performed by measuring the absorbance of cCMP at a wavelength of 286 nm. A mixture was prepared by combining Tris-acetate buffer (500 mM, pH=6.5, 200 μL), EDTA (5 mM, 200 μL), 2′,3′-cCMP (10 mM, 100 μL), RNase A (10 μg/mL, 100 μL), Fv variant (or synthetic peptides in the concentration range of 0.1 nM-1 μM), and DW (filled up to 1000 μL). The absorbance at 286 nm was measured using a Lamda35 UV-VIS spectrophotometer (Perkin-Elmer, MA, USA). The reaction was initiated by adding RNase A to the mixture, and the absorbance was measured every 3 minutes for a total of 30 minutes.
RNase A is known to degrade RNA by cleaving the phosphodiester bonds between nucleotides. The cleavage of the phosphodiester bonds occurs through a two-step reaction: (1) the formation of a […] and (2) the subsequent degradation of a 2′,3′-cyclic phosphate intermediate. […] Specifically, it was utilized that the absorbance at 286 nm quantitatively increases as 3′-CMP increases due to the hydrolysis of cCMP, as shown in FIG. 13. […] The inhibition curves of the Fv antibodies were plotted linearly, and the IC50 values were calculated by linear regression, as shown in FIG. 15. […]
The analysis of RNase A activity inhibition based on 2′,3′-cyclic CMP (cCMP) was performed by measuring the absorbance of cCMP at a wavelength of 286 nm. […] The absorbance at 286 nm was measured using a Lamda35 UV-VIS spectrophotometer (Perkin-Elmer, MA, USA). The reaction was initiated by adding RNase A to the mixture, and the absorbance was measured every 3 minutes for a total of 30 minutes.
RNase A is known to degrade RNA by cleaving the phosphodiester bonds between nucleotides. […] Specifically, it was utilized that the absorbance at 286 nm quantitatively increases as 3′-CMP increases due to the hydrolysis of cCMP, as shown in FIG. 13. […] The inhibition curves of the Fv antibodies were plotted linearly, and the IC50 values were calculated by linear regression, as shown in FIG. 15.

IC50 [nM] | Sequence
607 | CGPDSDVMTDF [Peptide-1]
356 | DGTAKKSRKDD [Peptide-3]

Sequence | IC50 [nM]
YGPVGRVKRDD [Peptide-2] | 373
